Reference: patent US12091417B2, “7-ethyl-10-hydroxycamptothecin derivatives for use in the treatment of cancer” (Narodowy Instytut Lekow, priority 2020, dated 2024)
Read-outs that look alike come from different tables or passages of the source.

What was measured:
MCF7 = assay: MTT cell proliferation test, cytotoxicity on MCF7 breast cancer cells; format: cell-based, human; conditions: MCF7, 72 hrs incubation, read-out: IC50 μmole/L, after 72 hrs incubation time
Description: (§1) IC50 Determination Using the Photometric Assay.
(§2) All cell lines, MCF7, HT29, HL60, A549 and CRL1790 were purchased from ATCC (American Cell Culture Collection). As exemplified the MCF-7 human breast cancer, the cell line was grown in Iscove's Modified Dulbecco's Medium, supplemented with 10% heat-inactivated fetal bovine serum, penicillin (100 Ul/mL), streptomycin (100 μg/mL), amphotericin (250 ng/mL), L-glutamine (2 mM) and 1% non-essential amino acids solution. The culture of HL-60 human leukemia cells was conducted in Iscove's Modified Dulbecco's Medium, supplemented with 20% heat-inactivated fetal bovine serum, penicillin (100 Ul/mL), streptomycin (100 μg/mL), amphotericin (250 ng/mL), L-glutamine (2 mM) and 1% non-essential amino acids solution.
(§3) The cells were grown at 37° C. in a humidified atmosphere containing 5% CO2. After 80% confluence was reached, the adherent MCF7, HL-60, cells were detached with a 0.25% trypsin solution and seeded in 96-well plates at a density of 5×10^4 cells/mL, 5×10^5 cells/mL, respectively.
(§4) After overnight incubation, the increasing concentrations (0.1-20 μM) of studied compounds dissolved in DMSO were added to the wells. Pure DMSO diluted at the ratio of 1:1000 (v/v) in growth media was added to control wells. After 24, 48 or 72 hours of incubation the MTT-cell proliferation test was performed.
(§5) The test exploits the ability of living cells mitochondrial dehydrogenases to convert water-soluble 3-(4,5-dimethylthiazol-2-yl)-2,5-diphenyltetrazolium bromide (MTT) to non-soluble formazan. Briefly, after 3 hours incubation of cells with MTT solution the absorbance of formazan dissolved in isopropyl alcohol was measured in a Power Wavex microplate spectrophotometer (BioTek Instruments) at 570 nm.
(§6) In order to compare the cytotoxicity of studied compounds the IC50 values (the concentrations which induce the cell viability decreased to 50% of the control) were determined. The normalized MTT data were fitted to log(inhibitor) vs. response-variable slope model (R^2>0.9) described by the Equation 1 using Prism 5 ver 5.03 (GraphPad Software, Inc):
(§7) [formula] where: V—cell viability, c—compound concentration, h—Hill coefficient.
(§8) As a result log IC50 with the standard error were calculated.

HT29 = assay: MTT cell proliferation test, cytotoxicity on HT29 colon cancer cells; format: cell-based; conditions: HT29, 72 hrs incubation, read-out: IC50 μmole/L, after 72 hrs incubation time
Description: as §1, §2, §3, §4, §5, §6, §7, §8

HL60 = assay: MTT cell proliferation test, cytotoxicity on HL60 leukemia cells; format: cell-based, human
Description: as §1, §2, §3, §4, §5, §6, §7, §8

A549 = assay: MTT cell proliferation test, cytotoxicity on A549 lung cancer cells; format: cell-based; conditions: A549, 72 hrs incubation, read-out: IC50 μmole/L, after 72 hrs incubation time
Description: as §1, §2, §3, §4, §5, §6, §7, §8

CRL1790 = assay: MTT cell proliferation test, cytotoxicity on CRL1790 normal cells; format: cell-based; conditions: CRL1790, 72 hrs incubation, read-out: IC50 μmole/L, after 72 hrs incubation time
Description: as §1, §2, §3
[…] Pure DMSO diluted at the ratio of 1:1000 (v/v) in growth media was added to control wells. After 24, 48 or 72 hours of incubation the MTT-cell proliferation test was performed.
as §5
as §6, with “Inc): […]” for “Inc):”
as §8

[1] = Blood, HL60, 72 hrs incubation, MTT, read-out: IC50 μmole/L, after 72 hrs incubation time

Row | Structure (SMILES) | IC50 (MCF7) [µmol/L] | IC50 (HT29) [µmol/L] | IC50 (HL60; [1]) [µmol/L] | IC50 (A549) [µmol/L] | IC50 (CRL1790) [µmol/L] | IC50 (HL60; no unit or cell line printed, values match the HL60 line of Table 1, read-out: IC50) [µmol/L]
1 | CCc1c2c(nc3ccc(O)cc13)-c1cc3c(c(=O)n1[C@H]2CN1CCCC1)COC(=O)[C@]3(O)CC [Compound 1, 5-(R)—(N-pyrrolidinyl)methyl-7-ethyl-10-hydroxycamptothecin] | 0.81 | 0.6 | 0.011 | 0.204 | – | –
2 | CCc1c2c(nc3ccc(O)c(CN4CCC4)c13)-c1cc3c(c(=O)n1[C@H]2CO)COC(=O)C3(O)CC (stereo partly drawn) [Compound 6, 5-(R)-hydroxymethyl-7-ethyl-9-(N-azetidinyl)methyl-10-hydroxycamptothecin] | 11.1 | 6.98 | 0.33 | 5.22 | > 1000 | –
3 | CCc1c2c(nc3ccc(O)c(CN4CCC4)c13)-c1cc3c(c(=O)n1[C@@H]2CO)COC(=O)[C@]3(O)CC [Compound 7, 5-(S)-hydroxymethyl-7-ethyl-9-(N-azetidinyl)methyl-10-hydroxycamptothecin] | 6.7 | 2.5 | 0.11 | 1.17 | > 1000 | –
4 | CCc1c2c(nc3ccc(O)cc13)-c1cc3c(c(=O)n1[C@@H]2CN1CCCC1)COC(=O)C3(O)CC (stereo partly drawn) [Compound 2, 5-(S)—(N-pyrrolidinyl)methyl-7-ethyl-10-hydroxycamptothecin] | 0.96 | 0.49 | 0.007 | 0.272 | – | –
5 | CCc1c2c(nc3ccc(O)c(CN4CCCC4)c13)-c1cc3c(c(=O)n1C2)COC(=O)C3(O)CC (centres unmarked) [CC2, (N-pyrrolidinyl)methyl-7-ethyl-10-hydroxycamptothecin, reference compound] | 1.43 | 0.24 | – | 0.083 | – | 0.014
6 | C=c1c2c(CC)c3cc(O)ccc3nc2c2cc3c(c(=O)n12)COC(=O)C3(O)CC (centres unmarked) [Compound 5, 5-methylidene-7-ethyl-10-hydroxycamptothecin] | – | 0.15 | – | 1.94 | – | –
7 | CCc1c2c(nc3ccc(O)cc13)-c1cc3c(c(=O)n1[C@H]2CO)COC(=O)C3(O)CC (stereo partly drawn) [Compound 3, 5-(R)-hydroxymethyl-7-ethyl-10-hydroxycamptothecin] | 15.9 | 9.48 | 0.72 | 4.27 | – | –
8 | CCc1c2c(nc3ccc(O)cc13)-c1cc3c(c(=O)n1[C@@H]2CO)COC(=O)[C@]3(O)CC [Compound 4, 5-(S)-hydroxymethyl-7-ethyl-10-hydroxycamptothecin] | 14.9 | 14.8 | 1.89 | 6.54 | – | –
9 | CCc1c2c(nc3ccc(O)cc13)-c1cc3c(c(=O)n1C2)COC(=O)[C@]3(O)CC [SN38, 7-ethyl-10-hydroxycamptothecin] | 0.66 | 0.02 | 0.002 | 0.028 | 4.98 | –
10 | CCc1c2c(nc3ccc(O)c(CN4CCC4)c13)-c1cc3c(c(=O)n1C2)COC(=O)C3(O)CC (centres unmarked) [CC1, (N-azetidinyl)methyl-7-ethyl-10-hydroxycamptothecin, reference compound] | 0.99 | 0.07 | 0.012 | 0.071 | – | –
